In patent publication US11439607B2 (Paracelsus Neuroscience I, LLC, priority 2016, dated 2022):
“Also recorded” adds a separate entry of the source. Where two headings read alike, the source gives them in different places.

Key:
rats = assay: Rat locomotor activity; assay type: in vivo; details: 4 hours after dosing
From the text: Male Sprague-Dawley rats (Charles River) weighing 225-275 g on the test day were divided into groups of 8 animals per treatment. […] Following the pre-treatment time, rats were placed into 50×25×20 cm cages lined with crushed corn cob bedding (Bed-o'Cobs ¼ inch, Andersons Lab Bedding, Maumee, Ohio, USA). The cages were positioned in a Smart Frame Cage Rack (Kinder Scientific, Poway, Calif., USA) outfitted with an infrared beam array (7 X×15 Y). Rats were allowed to move freely within the cage for 1 hour with beam breaks continuously recorded using MotorMonitor™ (Kinder Scientific,). Time course and cumulative data were analyzed with Prism 4 (GraphPad, La Jolla, Calif.). One-way ANOVA with Tukey's Multiple Comparison Post-Hoc Test was used for statistical analysis.

CCI rats = assay: Chronic constriction injury (CCI) model, von Frey paw withdrawal threshold; assay type: in vivo, rat; details: 4 hours after dosing
Experimental: Peripheral nerve injury was performed according to the method of Bennett and Xie (Bennett and Xie, 1988), with paw withdrawal thresholds to Von Frey filament stimulation measured as described previously (Chaplan et al., 1994; Tal and Bennett, 1994).
In the first cohort of nerve injured rats, hindpaw mechanical hypersensitivity was evident by day 7 and maintained for the duration of the experiment (see FIG. 4A). […] Experiments were run using a simple cross-over design. Tactile hypersensitivity of rats was evaluated one day prior to drug testing. Drugs were allowed to wash out for one week at which time the mechanical hypersensitivity was reassessed. Rats were then randomly re-assigned to groups prior to the next arm of the study being run. In the final arm, tissue was collected from 3 animals from each group immediately after behavioral assessment of allodynia. Dosing of drugs, assessment of mechanical thresholds and collection of tissues were performed by individual experimenters all blinded to treatments.
All CCI data are presented as mean+/−S.E.M. and were analyzed using ANOVA followed by Fisher's PLSD post-hoc analysis (StatView, Cary, N.C.) when appropriate.

[1] = Rat screening pharmacokinetics: plasma, brain, CSF exposure; assay type: in vivo; details: Screening PK, 10 mg/kg PO; for CSF / Free Brain / Free Plasma / concentration at 1 h / concentration at 4 h: 10 mg/kg; for concentration at 1 h / concentration at 4 h: po
Experimental: Male Sprague-Dawley rats (Crl:SD, Charles River) weighing 200-350 g were dosed to determine tissue exposure at 10 mg/kg p.o. (n=3) for screening pharmacokinetics (PK), and at 10, 30 and 100 mg/kg p.o. for the CCI studies (n=3 from each treatment group taken from the last arm of study). […] The rats were then decapitated and trunk blood was collected to in K3EDTA containing tubes. Plasma samples were generated by centrifugation (3500×g), and stored frozen at −20° C. until bioanalysis. The brains were harvested immediately following blood collection and stored frozen until bioanalysis at −20° C. For CCI animals, the plasma and brain harvests as described for the screening PK, although the tissue collection was initiated after the behavioral assessment was completed, approximately 4 hours 15 minutes after dosing. For spinal column harvest, a 20-gauge needle on a 10 ml syringe filled with cold saline was inserted into the spinal cord. The saline was used to flush the spinal column out. The spinal column tissues were then stored frozen at −20° C. prior to exposure measurements.
Prior to analysis, the brain and spinal cord samples were thawed at room temperature, weighed and homogenized using a homogenizing solution (IPA/H2O/DMSO; 30:50:20) at a ratio of 3/1 (ml/g) to generate tissue homogenates. An aliquot of 50 μl plasma, or 50 μl brain and spinal cord homogenates is mixed with 150 μl of a DMSO/ACN (20:80) solution that contains an internal standard (50 ng/ml). The diluted plasma, brain and spinal cord sample is then centrifuged (˜500 g for 15 min at 10° C.), supernatant is removed and then injected (10 μl) onto LC/MS/MS system for analysis. An Atlantis T3 column 2.6μ C18, 50×2.1 mm (Waters, Mass.) was used for analytical separation of the acid. A 6-minute mobile phase gradient was employed with mobile phase A (0.1% formic acid in water) ramping down from 99% to 1% (0-4 minutes), and then ramping back up to 99% (4-6 minutes), while ramping up solvent B (1% formic acid in ACN), from 1% to 99% (0-4 minutes), and then ramping down to 1% (4-6 minutes). Spectra was acquired in positive SRM mode with the parent mass of 324 and a daughter ion of 228.

Formalin test = Formalin test - Score; assay type: in vivo, rodent; details: Senicapoc 100 mg/kg PO, 240 min after treatment
Experimental: (§1) Depending on the test, the percentage of activity was calculated from the mean value of the vehicle-treated animals and compared to naïve animals, control paw or cut-off value.

melatonin 1A receptors = biological target: T1, melatonin 1A receptors (Homo sapiens, UniProt P48039); assay: Off target screen (CEREP panel) and dose response; assay type: binding
T1 construct: CEREP (contract screening)

Bennett model = Bennett model - Paw pressure test; assay type: in vivo, rodent; details: Senicapoc 100 mg/kg PO, 240 min after treatment
Experimental: as §1

Kaolin model = assay: Kaolin - Gait score; assay type: in vivo, rodent; details: Senicapoc 100 mg/kg PO, 240 min after treatment
Experimental: as §1

Oxaliplatin model = assay: Oxaliplatin - Acetone test (reaction time); assay type: in vivo, rodent; details: Senicapoc 100 mg/kg PO, 240 min after treatment
Experimental: as §1

κ-opioid receptors = biological target: T2, κ-opioid receptors (Homo sapiens, UniProt P41145); assay: Off target screen (CEREP panel) and dose response; assay type: binding
T2 construct: CEREP (contract screening)

TNBS model = assay: TNBS - Colorectal distension; assay type: in vivo, rodent; details: Senicapoc 100 mg/kg PO, 240 min after treatment
Experimental: as §1

Acetic acid test = Acetic acid test - Abdominal cramps; assay type: in vivo, rodent; details: Senicapoc 100 mg/kg PO, 240 min after treatment
Experimental: as §1

Carrageenan model = assay: Carrageenan - Paw pressure test; assay type: in vivo, rodent; details: Senicapoc 100 mg/kg PO, 240 min after treatment
Experimental: as §1

[2] = full dose response curve, functional testing

T2 sequence (P41145 whole entry): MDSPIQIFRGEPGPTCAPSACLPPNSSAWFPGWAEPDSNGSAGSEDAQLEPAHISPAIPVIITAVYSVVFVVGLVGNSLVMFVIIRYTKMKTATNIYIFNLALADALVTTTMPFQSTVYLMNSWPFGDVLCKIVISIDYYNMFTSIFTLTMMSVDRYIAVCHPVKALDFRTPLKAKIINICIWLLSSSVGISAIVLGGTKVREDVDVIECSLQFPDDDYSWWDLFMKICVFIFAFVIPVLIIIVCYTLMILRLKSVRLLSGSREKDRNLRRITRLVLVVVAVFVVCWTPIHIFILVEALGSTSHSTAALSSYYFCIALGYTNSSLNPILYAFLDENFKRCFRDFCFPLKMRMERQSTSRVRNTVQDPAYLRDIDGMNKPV
T1 sequence (P48039 whole entry): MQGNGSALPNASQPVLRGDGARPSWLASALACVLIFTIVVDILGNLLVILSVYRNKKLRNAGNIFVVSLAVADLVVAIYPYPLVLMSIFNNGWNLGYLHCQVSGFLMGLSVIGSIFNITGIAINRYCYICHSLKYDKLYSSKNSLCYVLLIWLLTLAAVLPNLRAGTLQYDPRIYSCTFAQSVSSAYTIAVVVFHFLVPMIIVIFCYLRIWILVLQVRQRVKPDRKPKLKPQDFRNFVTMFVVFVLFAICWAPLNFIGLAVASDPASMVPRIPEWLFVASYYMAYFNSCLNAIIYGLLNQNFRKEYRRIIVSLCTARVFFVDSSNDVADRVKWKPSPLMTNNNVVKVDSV

In the case of `NC(=O)C(c1ccccc1)(c1ccc(F)cc1)c1ccc(F)cc1` [Senicapoc], the “Effect on locomotor activity (total distance traveled)” value (rats; 30 mg/kg p.o.) is reported as “no effect; also recorded: did not significantly affect”, the “Effect on locomotor activity (total distance traveled)” value (rats; 100 mg/kg p.o.) is reported as “no effect; also recorded: did not significantly affect” and the “Reversal of mechanical hypersensitivity (tactile allodynia)” value (CCI rats; 100 mg/kg p.o.) is reported as 48%. For the same molecule, the “Effect on injury-induced nociceptive behaviors at the low doses” value (CCI rats; low doses (10, 30 mg/kg p.o.)) was “lack of significant effect”, the CSF ([1]; 1 h, mean ± SD) was 25 ± 16 nM and the “Free Brain” value ([1]; 1 h, UBBr = 0.008) was 37 ± 16 nM. For the same molecule, the “Free Plasma” value ([1]; 1 h, UBP = 0.027) was 17 ± 9 nM, the CSF ([1]; 4 h, mean ± SD) was 121 ± 62 nM and the “Free Brain” value ([1]; 4 h, UBBr = 0.008) was 136 ± 50 nM. The “Free Plasma” value ([1]; 4 h, UBP = 0.027) was 65 ± 22 nM, the concentration at 1 h ([1]; male, Sprague-Dawley, rat, brain, 1 h, mean ± SD, read-out: Brain) was 4660 ± 1990 nM and the concentration at 1 h ([1]; male, Sprague-Dawley, rat, brain, 1 h, UBBr = 0.008, read-out: Free Brain) was 37 nM. The concentration at 4 h ([1]; male, Sprague-Dawley, rat, brain, 4 h, mean ± SD, read-out: Brain) was 16900 ± 6040 nM, the concentration at 4 h ([1]; male, Sprague-Dawley, rat, brain, 4 h, UBBr = 0.008, read-out: Free Brain) was 136 nM and the Kp at 1 h ([1]; male, Sprague-Dawley, rat, brain, 1 h, read-out: Free Brain/Free Plasma) was 2.2. It also gave a Kp at 4 h ([1]; male, Sprague-Dawley, rat, brain, 4 h, read-out: Free Brain/Free Plasma) of 2.1, a concentration at 1 h ([1]; male, Sprague-Dawley, rat, plasma, 1 h, mean ± SD, read-out: Plasma) of 637 ± 322 nM and a concentration at 1 h ([1]; male, Sprague-Dawley, rat, plasma, 1 h, UBP = 0.027, read-out: Free Plasma) of 17 nM. For the same molecule, the concentration at 4 h ([1]; male, Sprague-Dawley, rat, plasma, 4 h, mean ± SD, read-out: Plasma) was 2390 ± 748 nM, the concentration at 4 h ([1]; male, Sprague-Dawley, rat, plasma, 4 h, UBP = 0.027, read-out: Free Plasma) was 65 nM and the concentration at 1 h ([1]; male, Sprague-Dawley, rat, 1 h, mean ± SD, read-out: CSF) was 25 nM. For the same molecule, the concentration at 4 h ([1]; male, Sprague-Dawley, rat, 4 h, mean ± SD, read-out: CSF) was 121 nM, the “% of activity vs. vehicle” value (Formalin test; early phase) was 14% and the “% of activity vs. vehicle” value (Formalin test; late phase) was 8%. The inhibition at 10 µM (melatonin 1A receptors; 10 μM) was over 50%, the IC50 (melatonin 1A receptors; [2]) was 1.7 µM and the “% of activity vs. vehicle” value (Bennett model) was 69%. For the same molecule, the “% of activity vs. vehicle” value (Kaolin model) was 29%, the “% of activity vs. vehicle” value (Oxaliplatin model) was 68% and the inhibition at 10 µM (κ-opioid receptors; 10 μM) was over 50%. For the same molecule, the IC50 (κ-opioid receptors; [2]) was 19 µM, the “% of activity vs. vehicle” value (TNBS model) was 50% and the “% of activity vs. vehicle” value (Acetic acid test) was −32%. For the same molecule, the “% of activity vs. vehicle” value (Carrageenan model) was 116%.
